Kd data for 3 compounds are collected here from PMC10046377, “Inhibitors of the Oncogenic PA2G4-MYCN Protein-Protein Interface” (Cancers, 2023).

This assay addresses T1, PA2G4 protein (Homo sapiens, UniProt Q9UQ80).
T1 sequence (Q9UQ80 1-394): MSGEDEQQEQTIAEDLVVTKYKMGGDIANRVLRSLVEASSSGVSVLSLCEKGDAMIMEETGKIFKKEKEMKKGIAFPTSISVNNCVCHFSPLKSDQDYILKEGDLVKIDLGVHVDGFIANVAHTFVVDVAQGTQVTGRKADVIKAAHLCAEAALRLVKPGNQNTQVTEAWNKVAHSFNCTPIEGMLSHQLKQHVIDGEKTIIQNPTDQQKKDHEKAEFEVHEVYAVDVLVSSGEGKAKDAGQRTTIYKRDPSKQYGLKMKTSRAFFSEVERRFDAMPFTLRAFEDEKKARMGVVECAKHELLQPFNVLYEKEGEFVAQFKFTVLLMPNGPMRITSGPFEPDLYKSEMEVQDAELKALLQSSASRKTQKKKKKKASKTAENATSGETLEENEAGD
Description: Surface plasmon resonance binding to recombinant PA2G4. Also noted: PA2G4 protein construct was ordered from GenScript (Piscataway, NJ, USA) and cloned into a pET22b vector; host or cells: BL21 (DE3) E. coli. The conditions noted are these: SPR. The method, then: PA2G4 protein construct was ordered from GenScript (Piscataway, NJ, USA) and cloned into a pET22b vector. The construct was expressed in BL21 (DE3) E. coli, which was transformed by adding 2 μL of DNA, as per the Addgene Bacterial Transformation Protocol (Addgene, Cambridge, MA, USA). A total of 250 μL of transformed cells were grown in Luria-Bertani (LB) agar, containing 100 μg/mL of ampicillin, overnight at 37 °C. Starting cultures were created by inoculating 100 mL of LB with several bacterial culture colonies, followed by an overnight shaking incubation at 125 rpm and 37 °C. The overnight culture was added (10 mL/L) to 2 L flasks of LB and incubated at 125 rpm and 37 °C until log phase growth was reached (OD600 = 0.6). Following incubation, the cell line was centrifuged at 4200 rpm for 30 min in 1 L bottles. The cell pellet was then resuspended in 25 mL of phosphate-buffered saline (PBS) and centrifuged again at 4200 rpm for 30 min.
Cell pellets were resuspended in 25 mL of Ni-IMAC buffer A (100 mM Tris (pH 8.0), 0.5 M NaCl, 1 mM TCEP), filtered through 22–25 μm Miracloth, and placed on ice. Filtered cells were lysed using the EmulsiFlex-C5 High-Pressure homogenizer (Avestin, Ottawa, ON, Canada), followed by high-speed centrifugation at 18,000 rpm for 20 min. The supernatant, containing the soluble cell lysate, was loaded onto a 5 mL His-Trap column (GE Healthcare Life Sciences, Buckinghamshire, UK) equilibrated in Ni-IMAC buffer A. An incremental gradient of Ni-IMAC buffer B (100 mM Tris pH 8.0, 0.5 M NaCl, 1 mM TCEP, and 1 M imidazole) was introduced. Eluted fractions were analysed by SDS-PAGE and pooled accordingly. Each protein sample was then loaded onto a HiPrep 26/10 Desalting column (GE Healthcare Life Sciences, Buckinghamshire, UK) and equilibrated into anion exchange buffer A (100 mM Tris pH 8.0, 50 mM NaCl, 1 mM TCEP). Samples were loaded onto the column and eluted fractions were analysed by SDS-PAGE and pooled accordingly.
Protein was loaded onto a 5 mL HiTrap Q (Sephrose-Q) anion exchange column (GE Healthcare Life Sciences, Buckinghamshire, UK) and equilibrated in anion exchange buffer A. Samples were loaded, eluted in the flow-through, and analysed using SDS-PAGE. Samples were pooled and concentrated using 10 kDa MWCO Ultra-4 centrifugal filters (Merck, Macquarie Park, NSW, Australia) and intermittent centrifugation at 4000 rpm. Protein samples were then purified using Size Exclusion Chromatography (SEC). Each sample was concentrated to […] using MWCO Ultra-4 centrifugal filters, then loaded onto a Superdex 75 16/60 SEC column (GE Healthcare Life Sciences, Buckinghamshire, UK) and equilibrated in SEC buffer (25 mM Hepes pH 7.7, 100 mM NaCl, 1 mM TCEP). Samples were eluted, analysed by SDS-PAGE, and concentrated to 10 mg/mL using 10 kDa MWCO Ultra-4 centrifugal filters, with intermitted centrifugation at 4000 rpm.
Recombinant PA2G4 was buffer exchanged into PBS buffer using an overnight dialysis at 4 °C. Protein was concentrated to 0.5 mg/mL and incubated for 3 h on ice with a 20:1 molar excess of EZ-Link Sulfo-NHS-LC-Biotin (Thermo Scientific, Melbourne, VIC, Australia). Biotinylated protein samples were isolated from excess biotin using a Superdex 200 10/300 SEC column (GE Healthcare Life Sciences, Buckinghamshire, UK). All SPR experiments were performed on a Biacore T200 instrument (GE Healthcare Life Sciences, Uppsala, Sweden), at 25 °C, in the presence of HEPES Buffered Saline (HBS) (20 mM […] (pH 7.5) 137 mM NaCl, 2.7 mM KCl, and 0.05% Tween 20). Streptavidin was coupled to a CM5 chip (GE Healthcare Life Sciences, Buckinghamshire, UK) using amine coupling. Biotinylated protein samples were then capture-coupled to the streptavidin, with flow cell 1 blocked as a reference.
Compounds were dissolved in 100% DMSO and diluted to 10 mM. […]

Where [1] appears, read: Biacore T200, 25 °C, biotinylated PA2G4.

Structures are written as SMILES.

`Cc1cccc(Oc2cc(N3CCC(C(=O)NCc4cccc(C(F)(F)F)c4)CC3)ncn2)c1C` [#3567]: the Kd is, setting by setting: under setting [1], 14.9 µM; (recombinant PA2G4) 14.9 µM.
With `Cc1cccc(Oc2cc(N3CCC(C(=O)NCc4cccc(Br)c4)CC3)ncn2)c1C` [#5333], the Kd runs as follows: under setting [1], 10.8 µM; (recombinant PA2G4) 10.8 µM.
For the compound `Cc1cccc(Oc2cc(N3CCC(C(=O)N[C@@H](C)CCc4ccccc4)CC3)ncn2)c1C` [#5338], the dissociation constant (Kd) under setting [1] came to 13.5 µM and the dissociation constant (Kd) (recombinant PA2G4) was 13.5 µM.
